Legend:
Escherichia coli = test: Tested in vitro for percent inhibition of the growth of Escherichia coli at concentration of 20 uM; format: functional
Listeria innocua = test: Tested in vitro for percent inhibition of the growth of Listeria inocua at concentration of 20 uM; format: functional

SMILES | Growth response (Escherichia coli) [%] | Growth response (Listeria innocua) [%]
C=CC(=O)NCCn1ccc(=O)c(O)c1C | 0 | 13
CCC(=O)NCCn1ccc(=O)c(O)c1C | 0 | 14

— ChEMBL document CHEMBL1127700, “Iron(III)-chelating resins. IX. Antibacterial activity of a water-insoluble iron(III)-chelating resin” (1994)
